Test results from patent US20240390383A1, “DIOXAZINES AND THEIR USE IN TREATMENT OF GBA-RELATED DISEASES” (ZEVRA DENMARK A/S, priority 2021, published 2024).

Molecular target: T1, GCase (GBA) in human fibroblast cell line GM10915 harboring the L444P GBA mutation (Homo sapiens, UniProt P04062, L483P)
T1 construct: Human fibroblast cell line GM10915 harboring the L444P GBA mutation; host or cells: GM10915 human fibroblasts
T1 sequence (P04062 40-536 L483P): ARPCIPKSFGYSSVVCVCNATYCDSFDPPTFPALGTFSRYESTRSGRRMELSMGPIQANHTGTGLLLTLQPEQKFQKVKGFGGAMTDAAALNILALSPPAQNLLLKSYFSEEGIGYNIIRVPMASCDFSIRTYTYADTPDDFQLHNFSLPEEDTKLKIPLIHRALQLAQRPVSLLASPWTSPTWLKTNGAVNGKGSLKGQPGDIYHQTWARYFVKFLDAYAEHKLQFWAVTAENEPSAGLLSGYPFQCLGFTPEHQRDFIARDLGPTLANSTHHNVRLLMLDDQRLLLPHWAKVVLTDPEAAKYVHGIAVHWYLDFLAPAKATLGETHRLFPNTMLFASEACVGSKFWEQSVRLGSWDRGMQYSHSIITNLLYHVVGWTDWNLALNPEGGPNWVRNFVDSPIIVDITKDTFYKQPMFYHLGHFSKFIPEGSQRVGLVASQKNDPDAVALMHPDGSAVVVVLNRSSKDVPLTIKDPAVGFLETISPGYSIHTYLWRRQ
Experiment: GCase activity assay (4-MUG substrate, normalised to crystal violet staining) in L444P GBA fibroblasts
Type: cell-based
Settings: 5 days exposure; for GBA EC1.5: concentration giving 150% GCase activity (1.5-fold induction), 8-point dose range; for Emax: maximum percent GCase activity relative to untreated cells in the dose range tested
Description: Human fibroblast cell line GM10915 harboring the L444P GBA mutation was obtained from Coriell Biorepositories.
All chemicals (Glacial acetic acid, Glycine, 4-Methylumbelliferyl b-D-glucopyranoside (4-MUG), Sodium acetate trihydrate, Sodium hydroxide, Crystal violet, SDS, Ammonium hydroxide) were obtained from Sigma-Aldrich (Denmark) Compounds tested for GCase activity were dissolved in H2O or DMSO.
The GM10915 cell line was cultured under standard cell culture conditions (37° C. and 5% CO2) in complete DMEM medium supplemented with nonessential amino acids (NEAA), 1% Pen-Strep and 12% FCS. Cells were seeded at a density of 10^4 cells/well in 100 μL complete medium in one black 96-well plate for glucosylceramidase (GCase) activity measurement and in one clear 96-well plate for crystal violet staining to correct for cell density. Crystal violet staining is performed to obtain quantitative information about the relative density of cells adhering to multi-wells plates.
The assay was adapted from Sawkar et al (2002) and briefly described in the following. The day after seeding of cells, the medium was replaced with fresh medium containing the compounds to be tested. Compounds were tested in duplicate and in an 8-point diluted dose range to obtain a dose response. Cells were exposed with compounds for five days. Fresh compound was added every 2-3 days. PBS was included to define the basal level of GCase activity.
Cells were washed three times with 200 μL PBS per well and 50 μL of 2.5 mM 4-MUG buffer (4-MUG dissolved in 0.2 M acetate buffer pH 4.0) was added and the cells were incubated at 37° C., 5% CO2 for 23 hours. The reaction was stopped by adding 150 μL 0.2 M glycine buffer (pH 10.8). Fluorescence was measured with a Varioskan® Flash reader (Thermo Scientific) at an excitation/emission setting of 365/445 nm.
Cells were treated with compounds in a parallel setup identical to the setup to test for GCase activity. At the end of compound treatment, cells were washed once with 200 μL PBS per well and 50 μL 0.1% w/v crystal violet (in H2O) was added. Following 10 min. of incubation, the crystal violet solution was removed, and the cells were washed three times with 200 μL PBS and 100 μL 1% SDS was added to solubilize the stain. The plate was agitated on an orbital shaker for 10-30 min. Absorbance (A) is measured at […] using a Varioskan® Flash reader (Thermo Scientific).
The fluorescence signal (F) derived from the GCase measurement is normalized to the absorbance signal (A) derived from the crystal violet staining. The percent GCase activity resulting from compound treatment is calculated relative to the basal activity obtained from untreated cells.
Maximal effect of compounds (Emax) is determined from the dose response effects as the maximum “Percent GCase activity” achieved in the dose range tested.

Row | SMILES | GBA EC1.5 [µM] | Emax [%]
1 | C1CCN(CC2CON=C(C3(C4CCOCC4)CCNC3)O2)CC1 (racemic) [compound 583, rac-5-(piperidin-1-ylmethyl)-3-(3-(tetrahydro-2H-pyran-4-yl)pyrrolidin-3-yl)-5,6-dihydro-1,4,2-dioxazine] | 14 | 188
2 | COCC1(C2=NOCC(CN3CCCCC3)O2)CCNC1 (racemic) [compound 594, rac-3-(3-(methoxymethyl)pyrrolidin-3-yl)-5-(piperidin-1-ylmethyl)-5,6-dihydro-1,4,2-dioxazine] | 49 | 152
3 | COC1(C2=NOCC(CN3CCCCC3)O2)CCNC1 (racemic) [compound 606, rac-3-(3-methoxypyrrolidin-3-yl)-5-(piperidin-1-ylmethyl)-5,6-dihydro-1,4,2-dioxazine] | 20 | 292
4 | CC1ON=C(C2CCNC2)OC1CN1CCCCC1 (racemic) [compound 616, rac-6-methyl-5-(piperidin-1-ylmethyl)-3-(pyrrolidin-3-yl)-5,6-dihydro-1,4,2-dioxazine] | 6 | 390
5 | C[C@@H]1CC(C2=NOCC(CN3CCCCC3)O2)C[C@H](C)N1 (mixture of isomers) [compound 633, rac-3-((2R,6S)-2,6-dimethylpiperidin-4-yl)-5-(piperidin-1-ylmethyl)-5,6-dihydro-1,4,2-dioxazine] | 5 | 226
6 | C1CCN(CC2CON=C(C34CCN(CC3)C4)O2)CC1 (racemic) [compound 641, rac-3-(1-azabicyclo[2.2.1]heptan-4-yl)-5-(piperidin-1-ylmethyl)-5,6-dihydro-1,4,2-dioxazine] | 3 | 275
7 | C1CCN(CC2CON=C(C34CCN(CC3)CC4)O2)CC1 (racemic) [compound 642, rac-5-(piperidin-1-ylmethyl)-3-(quinuclidin-4-yl)-5,6-dihydro-1,4,2-dioxazine] | 3 | 282
8 | c1cncc(CC2(C3=NOCC(CN4CCCCC4)O3)CCNC2)c1 (racemic) [compound 643, rac-5-(piperidin-1-ylmethyl)-3-(3-(pyridin-3-ylmethyl)pyrrolidin-3-yl)-5,6-dihydro-1,4,2-dioxazine] | 18 | 178
9 | C1CCN(CC2CON=C(C3CN4CCC3CC4)O2)CC1 (racemic) [compound 644, rac-5-(piperidin-1-ylmethyl)-3-(quinuclidin-3-yl)-5,6-dihydro-1,4,2-dioxazine] | 5 | 264
10 | CN1CCCC(C2=NOCC(CN3CCCCC3)O2)C1 (racemic) [compound 648, rac-3-(1-methylpiperidin-3-yl)-5-(piperidin-1-ylmethyl)-5,6-dihydro-1,4,2-dioxazine] | 4.3 | 201
11 | CC1(C)CNCC1C1=NOCC(CN2CCCCC2)O1 (racemic) [compound 688, rac-3-(4,4-dimethylpyrrolidin-3-yl)-5-(piperidin-1-ylmethyl)-5,6-dihydro-1,4,2-dioxazine] | 34 | 152
12 | CC(N)C(=O)N1CCC(C2=NOCC(CN3CCCCC3)O2)C1 (racemic) [compound 691, rac-2-amino-1-(3-(5-(piperidin-1-ylmethyl)-5,6-dihydro-1,4,2-dioxazin-3-yl)pyrrolidin-1-yl)propan-1-one] | 25 | 252
13 | NCC(=O)N1CCC(C2=NOCC(CN3CCCCC3)O2)C1 (racemic) [compound 699, rac-2-amino-1-(3-(5-(piperidin-1-ylmethyl)-5,6-dihydro-1,4,2-dioxazin-3-yl)pyrrolidin-1-yl)ethan-1-one] | 38 | 203
14 | COC1CCN(C)CC1C1=NOCC(CN2CCCCC2)O1 (racemic) [compound 700, rac-3-(4-methoxy-1-methylpiperidin-3-yl)-5-(piperidin-1-ylmethyl)-5,6-dihydro-1,4,2-dioxazine] | 15 | 270

Next, values leading:

Row | GBA EC1.5 [µM] | Emax [%] | SMILES
15 | 36 | 164 | CC1(C2=NOCC(CN3CCCCC3)O2)CCCN1 (racemic) [compound 566, rac-3-(2-methylpyrrolidin-2-yl)-5-(piperidin-1-ylmethyl)-5,6-dihydro-1,4,2-dioxazine]
16 | 6 | 281 | CC1(C2=NOCC(CN3CCCCC3)O2)CCNCC1 (racemic) [compound 568, rac-3-(4-methylpiperidin-4-yl)-5-(piperidin-1-ylmethyl)-5,6-dihydro-1,4,2-dioxazine]
17 | 6 | 172 | CN1CCCC(C(C)(C)C2=NOCC(CN3CCCCC3)O2)C1 (racemic) [compound 595, rac-3-(2-(1-methylpiperidin-3-yl)propan-2-yl)-5-(piperidin-1-ylmethyl)-5,6-dihydro-1,4,2-dioxazine]
18 | 26 | 299 | NC1CCC(C2=NOCC(CN3CCCCC3)O2)CC1 (racemic) [compound 611, rac-4-(5-(piperidin-1-ylmethyl)-5,6-dihydro-1,4,2-dioxazin-3-yl)cyclohexan-1-amine]
19 | 10 | 276 | CC1ON=C(C2CCN(C(C)C)C2)OC1CN1CCCCC1 (racemic) [compound 621, rac-3-(1-isopropylpyrrolidin-3-yl)-6-methyl-5-(piperidin-1-ylmethyl)-5,6-dihydro-1,4,2-dioxazine]
20 | 6 | 183 | CN(C)C12CCC(C3=NOCC(CN4CCCCC4)O3)(CC1)CC2 (racemic) [compound 640, rac-N,N-dimethyl-4-(5-(piperidin-1-ylmethyl)-5,6-dihydro-1,4,2-dioxazin-3-yl)bicyclo[2.2.2]octan-1-amine]
21 | 8 | 232 | c1ncn2c1CC(C1=NOCC(CN3CCCCC3)O1)CC2 (racemic) [compound 655, rac-5-(piperidin-1-ylmethyl)-3-(5,6,7,8-tetrahydroimidazo[1,5-a]pyridin-7-yl)-5,6-dihydro-1,4,2-dioxazine]
22 | 9 | 212 | c1cn2c(n1)CC(C1=NOCC(CN3CCCCC3)O1)CC2 (racemic) [compound 660, rac-5-(piperidin-1-ylmethyl)-3-(5,6,7,8-tetrahydroimidazo[1,2-a]pyridin-7-yl)-5,6-dihydro-1,4,2-dioxazine]
23 | 49 | 151 | CC1(C2=NOCC(CN3CCC(F)(F)CC3)O2)CCNCC1 (racemic) [compound 673, rac-5-((4,4-difluoropiperidin-1-yl)methyl)-3-(4-methylpiperidin-4-yl)-5,6-dihydro-1,4,2-dioxazine]
24 | 20 | 209 | COC1CNCC(C2=NOCC(CN3CCCCC3)O2)C1 (racemic) [compound 680, rac-3-(5-methoxypiperidin-3-yl)-5-(piperidin-1-ylmethyl)-5,6-dihydro-1,4,2-dioxazine]
25 | 12 | 270 | COCCC1(C2=NOCC(CN3CCCCC3)O2)CCNC1 (racemic) [compound 685, rac-3-(3-(2-methoxyethyl)pyrrolidin-3-yl)-5-(piperidin-1-ylmethyl)-5,6-dihydro-1,4,2-dioxazine]
26 | 25 | 205 | COC1CNCCC1C1=NOCC(CN2CCCCC2)O1 (racemic) [compound 690, rac-3-(3-methoxypiperidin-4-yl)-5-(piperidin-1-ylmethyl)-5,6-dihydro-1,4,2-dioxazine]
